Values after ≈ are worked out from the molar mass of the structure shown. Read-outs that look alike come from different tables or passages of the source. Marks after values point to notes of the source that are not given here.
Experiments:
J774 MΦ = assay: Alamar Blue cytotoxicity assay, J774 macrophages; conditions: read-out: J774 MΦ Cytotox. (IC50), 24-h
MRSE 35984 = assay: MIC susceptibility assay (broth microdilution); conditions: 16 h; for MIC: Staphylococcus epidermidis, MRSE, read-out: MIC MRSE 35984
Protocol: (§1) (MIC values were further supported by spectrophotometric readings at OD600). The concentration range tested for each HP compound during this study was 0.05 to 50 μM. DMSO served as our vehicle and negative control in each microdilution MIC assay. DMSO was serially diluted with a top concentration of 0.5% v/v.

HepG2 cells = assay: Alamar Blue cytotoxicity assay, HepG2; conditions: read-out: Hep G2 Cytotox. (IC50), 24-h
human red blood cells = assay: Hemolysis assay with red blood cells; conditions: human RBCs, 1 hour, 37° C.
Protocol: Hemolysis assays are used to determine the membrane-lysis activity of a compound, which is of particular interest to this work as membrane-lysing agents (e.g., QACs) can eradicate biofilms.
Cytotoxicity Assay against HEK-293 Cells.^48 The viability of HEK-293 cells was assessed by the MTT assay. The cells were cultured in DMEM medium containing 10% fetal bovine serum and 100 U/mL penicillin and streptomycin. The cells (10^4 cells/well) were seeded onto a 96-well plate and maintained at 37° C. in a humidified incubator under 5% CO2 overnight. […] After incubation at 37° C. for 72 hours, 10 μL of MTT (5 mg/mL) in PBS was added to each well and incubated for 4 hours, followed by the aspiration of the medium. Dimethyl sulfoxide (DMSO, 100 μL) was then added to each well to dissolve the MTT in the wells, and the plate was agitated for 1 hour. The optical density (OD) was measured at 570 nm using a UV/vis microplate spectrophotometer (BioTek). The percent inhibition was calculated as follows: Inhibition (%)=(1−test OD570/non-treated OD570)×100%. The data were analyzed by Origin. Hemolysis Assay with Red Blood Cells. […] The washing was repeated three times with the buffer. In 96-well plate, test compounds were added to the buffer from DMSO stocks. […] The plate was then incubated for 1 hour at 37° C. After incubation, the plate was centrifuged for 5 minutes at 3,500 rpm before 80 μL of the supernatant was transferred to another 96-well plate to obtain an optical density (OD) read at 405 nm. DMSO served as the negative control (0% hemolysis) while Triton X served as the positive control (100% hemolysis) in these experiments. The percent hemolysis was calculated as (OD405 of the compound treated RBCs−OD405 DMSO control)/(OD405 Triton X treated RBCs−OD405 buffer) from three independent experiments.

E. faecalis OG1RF = assay: MIC susceptibility assay (broth microdilution); conditions: Enterococcus faecalis, 16 h, read-out: MIC E. faecalis OG1RF
Protocol: as §1

MRSA-1707 biofilms = assay: Calgary Biofilm Device (CBD) assay; conditions: Staphylococcus aureus, read-out: MRSA-1707 MBC
[1] = system: E. faecalis OG1RF biofilms; assay: Calgary Biofilm Device (CBD) assay; conditions: Enterococcus faecalis, OG1RFBIOFILMS, read-out: E.faecalis OG1RF MBC
Mtb CDC1551 = assay: microbe, parasite or virus in culture; type: cell-based, Mycobacterium tuberculosis
VRE 700221 = assay: MIC susceptibility assay (broth microdilution); conditions: 16 h; for MIC: Enterococcus, VRE, read-out: MIC VRE 700221
Protocol: The concentration range tested for each HP compound during this study was 0.05 to 50 μM. DMSO served as our vehicle and negative control in each microdilution MIC assay. DMSO was serially diluted with a top concentration of 0.5% v/v.

HeLa cells = assay: LDH release assay for HeLa cytotoxicity; conditions: read-out: HeLa Cell Cytotox. (IC50), 24-h, tested at 25, 50 and 100 μM
MRSA-1707 = assay: MIC susceptibility assay (broth microdilution); conditions: 16 h; for MIC: Staphylococcus aureus, MRSA, read-out: MIC MRSA-1707, planktonic growth inhibition, 16 h, 37° C.
Protocol: as §1

MRSE 35984 biofilms = assay: Calgary Biofilm Device (CBD) assay; conditions: Staphylococcus epidermidis, MRSE, read-out: MRSE 35984 MBC
MRSA-44 = assay: MIC susceptibility assay (broth microdilution); conditions: Staphylococcus aureus, 16 h, read-out: MIC MRSA-44
Protocol: as §1

VRE 700221 biofilms = assay: Calgary Biofilm Device (CBD) assay; conditions: Enterococcus, read-out: VRE 700221 MBC
S. aureus 129 = assay: MIC assay against clinical isolate; type: cell-based; conditions: Staphylococcus aureus
MRSA 1 = assay: MIC assay against clinical isolate; type: cell-based, S. aureus; conditions: Staphylococcus aureus
MRSA 2 = assay: MIC assay against clinical isolate; type: cell-based, S. aureus; conditions: Staphylococcus aureus
S. aureus 138 = assay: MIC assay against clinical isolate; type: cell-based; conditions: Staphylococcus aureus
S. aureus 147 = assay: MIC assay against clinical isolate; type: cell-based
S. aureus 156 = assay: MIC assay against clinical isolate; type: cell-based; conditions: Staphylococcus aureus, 156, read-out: MIC S. aureus 156
[2] = system: MRSA, MRSE and VRE strains; assay: MIC assays, summary statements over several Gram-positive strains; conditions: read-out: MIC against MRSA, MRSE and VRE strains
Protocol: as §1

Mtb H37Ra = assay: MIC assay for Mtb H37Ra; conditions: seven days, 37° C.
[3] = Mycobacterium tuberculosis, CDC1551, 120 h
[4] = planktonic growth inhibition, 37° C.

| Compound | IC50 (J774 MΦ) [µM] | IC50 (HepG2 cells) [µM] | % Hemolysis at 200 μM (human red blood cells) [%] | MIC (E. faecalis OG1RF) [µM] | MBC (MRSA-1707 biofilms) [µM] | MIC (Mtb CDC1551; [3]) [µM] | MIC (MRSA-1707) [µM] | MBC (MRSE 35984 biofilms) [µM] | other results |
| --- | --- | --- | --- | --- | --- | --- | --- | --- | --- |
| Cc1c(Br)ccc2nc3c(O)c(Br)c(Cl)c(Br)c3nc12 [Compound 31, 2,4,7-Tribromo-3-chloro-6-methylphenazin-1-ol] | > 200 | > 200 | 27 | 0.08 (≈ 0.0385 µg/mL) | 75 (≈ 36.1 µg/mL) | 0.88 (≈ 0.424 µg/mL) | – | – | MIC (MRSE 35984): 0.1 µM (≈ 0.0481 µg/mL); MBC [1]: 1.56 µM (≈ 0.751 µg/mL); MIC (Mtb CDC1551): 0.88 µM (≈ 0.424 µg/mL); MIC (VRE 700221): ≤ 0.05 µM |
| Oc1c(Br)c(Cl)c(Br)c2nc3ccc(F)cc3nc12 [Compound 33, 2,4-Dibromo-3-chloro-8-fluorophenazin-1-ol] | > 200 | > 200 | ≤1 | – | 12.5 (≈ 5.08 µg/mL) | 1.71 (≈ 0.695 µg/mL) | 0.15 (≈ 0.061 µg/mL) | 12.5 (≈ 5.08 µg/mL) | IC50 (HeLa cells): > 25 µM; MIC MRSA-1707 (MRSA-1707; [4]): 0.15 µM (≈ 0.061 µg/mL); MIC (MRSA-44): 0.2 µM (≈ 0.0813 µg/mL) |
| Oc1c(Br)c(Cl)c(Br)c2nc3ccc(I)cc3nc12 [Compound 37, 2,4-Dibromo-3-chloro-8-iodophenazin-1-ol] | – | – | 3.0 | 1.56 (≈ 0.802 µg/mL) | 12.5 (≈ 6.43 µg/mL) | – | 0.15 (≈ 0.0772 µg/mL) | 6.25 (≈ 3.21 µg/mL) | MBC (VRE 700221 biofilms): 4.69 µM (≈ 2.41 µg/mL); MIC (MRSE 35984): 0.3 µM (≈ 0.154 µg/mL) |
| CCSc1c(Br)c(O)c2nc3cccc(C)c3nc2c1Br [Compound 45, 2,4-Dibromo-3-(ethylthio)-6-methylphenazin-1-ol] | > 100 | > 200 | 5.7 | 0.78 (≈ 0.334 µg/mL) | 50 (≈ 21.4 µg/mL) | 1.69 (≈ 0.724 µg/mL) | – | 12.5 (≈ 5.35 µg/mL) | MIC MRSE 35984 (MRSE 35984; [4]): 0.30^a μM; MIC (S. aureus 129): 0.47 µM (≈ 0.201 µg/mL); MIC (MRSA 1): 0.31 µM (≈ 0.133 µg/mL); MIC (MRSA 2): 0.63 µM (≈ 0.27 µg/mL); MIC (S. aureus 138): 0.47 µM (≈ 0.201 µg/mL); MIC (S. aureus 147; Staphylococcus aureus, 147, clinical isolate, read-out: MIC S. aureus 147): 0.47 µM (≈ 0.201 µg/mL); MIC (S. aureus 156): 0.47 µM (≈ 0.201 µg/mL) |
| Cc1cccc2nc3c(O)c(Br)c(SCCO)c(Br)c3nc12 [Compound 46, 2,4-Dibromo-3-((2-hydroxyethyl)thio)-6-methylphenazin-1-ol] | – | – | – | – | – | – | 6.25 (≈ 2.78 µg/mL) | – | MIC [2]: 2.35 to 12.5 µM (≈ 1.04 to 5.55 µg/mL); MIC (MRSA-44): 6.25 µM (≈ 2.78 µg/mL) |
| CC(=O)NC[C@H]1CN(c2ccc(N3CCOCC3)c(F)c2)C(=O)O1 [Linezolid, reference compound] | – | – | – | – | 31.3 (≈ 10.6 µg/mL) | – | 12.5 (≈ 4.22 µg/mL) | – | – |
| [H]/N=C(/N)N[C@H]1[C@H](O)[C@@H](O)[C@H](O[C@@H]2O[C@@H](C)[C@](O)(C=O)[C@H]2O[C@@H]2O[C@@H](CO)[C@H](O)[C@@H](O)[C@@H]2NC)[C@@H](N/C(N)=N\[H])[C@@H]1O [Streptomycin, reference compound] | – | – | – | – | – | – | – | – | MIC Mtb H37Ra (Mtb H37Ra): 1.32 µM (≈ 0.768 µg/mL) |
| CN[C@H](CC(C)C)C(=O)N[C@H]1C(=O)N[C@@H](CC(N)=O)C(=O)N[C@H]2C(=O)N[C@H]3C(=O)N[C@H](C(=O)N[C@H](C(=O)O)c4cc(O)cc(O)c4-c4cc3ccc4O)[C@H](O)c3ccc(c(Cl)c3)Oc3cc2cc(c3O[C@@H]2O[C@H](CO)[C@@H](O)[C@H](O)[C@H]2O[C@H]2C[C@](C)(N)[C@H](O)[C@H](C)O2)Oc2ccc(cc2Cl)[C@H]1O [Vancomycin, reference compound] | – | – | – | – | – | – | – | 3 (≈ 4.35 µg/mL) | MBC (VRE 700221 biofilms): 750 µM (≈ 1090 µg/mL); MBC [1]: 11.7 µM (≈ 17 µg/mL); MIC (S. aureus 147; Staphylococcus aureus, 147, read-out: MIC S. aureus 147): 0.59 µM (≈ 0.855 µg/mL); MIC (VRE 700221): > 100 µM; MIC VRE 700221 (VRE 700221; [4]): >100 µM |

From patent US12060334B2, “3-substituted phenazine derivatives as antimicrobial agents” (University of Florida Research Foundation, Incorporated, priority 2021, dated 2024)
